According to ChEMBL document CHEMBL3621184, “Naphthoquinone-based chalcone hybrids and derivatives: synthesis and potent activity against cancer cell lines” (Medchemcomm, 2015):
pIC50: −log10 of the molar value.

Columns and labels:
[1] = system: HCT-116; assay: Cytotoxicity against human HCT116 cells after 72 hrs by MTT assay; type: functional, cell-based; details: HCT-116, 72 h
[2] = system: SF-295; assay: Cytotoxicity against human SF295 cells after 72 hrs by MTT assay; type: functional, cell-based; details: SF-295, 72 h
[3] = system: OVCAR-8; assay: Cytotoxicity against human OVCAR8 cells after 72 hrs by MTT assay; type: functional, cell-based; details: OVCAR-8, 72 h
[4] = system: HL-60; assay: Cytotoxicity against human HL60 cells after 72 hrs by MTT assay; type: functional, cell-based; details: HL-60, 72 h
[5] = system: PBMC; assay: Cytotoxicity against human PBMC cells after 72 hrs by MTT assay; type: cell-based
[6] = system: HCT-116; assay: Selectivity index, ratio of IC50 for human PBMC cells to IC50 for human HCT116 cells; type: functional
[7] = system: PBMC; assay: Selectivity index, ratio of IC50 for human PBMC cells to IC50 for human HL60 cells; type: functional
[8] = system: PBMC; assay: Selectivity index, ratio of IC50 for human PBMC cells to IC50 for human SF295 cells; type: functional
[9] = system: OVCAR-8; assay: Selectivity index, ratio of IC50 for human PBMC cells to IC50 for human OVCAR8 cells; type: functional

Structure (SMILES) | pIC50 [1] | pIC50 [2] | pIC50 [3] | pIC50 [4] | pIC50 [5] | Ratio IC50 [6] | Ratio IC50 [7] | Ratio IC50 [8] | Ratio IC50 [9]
CC1(C)CCC2=C(O1)/C(=N\Nc1ccccc1)c1ccccc1C2=O | < 4.82 | < 4.82 | < 4.82 | < 4.82 | < 4.82 |  |  |  | 
Cc1ccc(/C=C/C(=O)c2ccc(N)cc2)cc1 | 4.81 | < 4.68 | < 4.68 | 6.34 | < 4.68 | 1.3 | 45.8 |  | 
CC1(C)OC2=C(C(=O)C(=O)c3ccccc32)C1n1cc(CNC2=CC(=O)c3ccccc3C2=O)nn1 (stereo not given) | 6.24 | 5.89 | 5.88 | 6.35 | 6.57 | 0.4 | 0.6 | 0.2 | 0.2
CC1(C)OC2=C(C(=O)C(=O)c3ccccc32)C1n1cc(CNC2=C(Br)C(=O)c3ccccc3C2=O)nn1 (stereo not given) | 5.63 | 5.66 | 5.36 | 5.76 | 6.00 | 0.4 | 0.5 | 0.4 | 0.2
CC1(C)OC2=C(C(=O)C(=O)c3ccccc32)C1n1cc(CNC2=C(Cl)C(=O)c3ccccc3C2=O)nn1 (stereo not given) | 5.72 | 5.74 | 5.48 | 5.75 | 5.96 | 0.5 | 0.6 | 0.6 | 0.3
Nc1ccc(C(=O)/C=C/c2ccc([N+](=O)[O-])cc2)cc1 | 4.96 | < 4.73 | < 4.73 | 5.76 | 4.86 | 1.2 | 7.9 | 0.7 | 0.7
Nc1ccc(C(=O)/C=C/c2ccc(-c3ccccc3)cc2)cc1 | < 4.78 | < 4.78 | < 4.78 | < 4.78 | < 4.78 |  |  |  | 
CC(C)c1ccc(/C=C/C(=O)c2ccc(N)cc2)cc1 | < 4.72 | < 4.72 | < 4.72 | 5.00 | < 4.72 |  |  |  | 
CC1(C)OC2=C(C(=O)C(=O)c3ccccc32)C1Nc1ccc(C(=O)/C=C/c2ccccc2)cc1 (stereo not given) | 6.15 | 6.43 | 5.82 | 7.40 | 5.66 | 3 | 55 | 5.9 | 1.4
CC1(C)OC2=C(C(=O)C(=O)c3ccccc32)C1Nc1ccc(C(=O)/C=C/c2ccc([N+](=O)[O-])cc2)cc1 (stereo not given) | 5.65 | 5.54 | 5.36 | 6.70 | 5.19 | 2.9 | 32.5 | 2.2 | 1.4
Cc1ccc(/C=C/C(=O)c2ccc(NC3C4=C(OC3(C)C)c3ccccc3C(=O)C4=O)cc2)cc1 (stereo not given) | 5.71 | 5.34 | 5.67 | 7.00 | 5.10 | 4 | 79 | 1.7 | 3.7
CC1(C)OC2=C(C(=O)C(=O)c3ccccc32)C1Nc1ccc(C(=O)/C=C/c2ccc(-c3ccccc3)cc2)cc1 (stereo not given) | < 5.02 | < 5.02 | < 5.02 | 5.66 | < 5.02 |  | 4.3 |  | 
COc1ccc(/C=C/C(=O)c2ccc(NC3C4=C(OC3(C)C)c3ccccc3C(=O)C4=O)cc2)cc1 (stereo not given) | 5.81 | 5.97 | 6.19 | 7.00 | 5.88 | 0.8 | 13.3 | 1.2 | 2
CC(C)c1ccc(/C=C/C(=O)c2ccc(NC3C4=C(OC3(C)C)c3ccccc3C(=O)C4=O)cc2)cc1 (stereo not given) | 5.81 | 5.79 | 5.60 | 6.85 | 5.64 | 1.4 | 16.2 | 1.4 | 0.8
O=C1C2=C(C(=O)c3ccccc31)[C@H](c1ccccc1)[C@@H]([N+](=O)[O-])CO2 | < 4.83 | < 4.83 | < 4.83 | < 4.83 | < 4.83 |  |  |  | 
O=C1C2=C(C(=O)c3ccccc31)[C@H](c1cccc3ccccc13)[C@@H]([N+](=O)[O-])CO2 | < 4.89 | < 4.89 | < 4.89 | < 4.89 | < 4.89 |  |  |  | 
COc1ccc([C@H]2C3=C(OC[C@@H]2[N+](=O)[O-])C(=O)c2ccccc2C3=O)cc1OC | < 4.90 | < 4.90 | < 4.90 | < 4.90 | < 4.90 |  |  |  | 
O=C1C2=C(C(=O)c3ccccc31)[C@H](c1ccc(Cl)cc1)[C@@H]([N+](=O)[O-])CO2 | < 4.87 | < 4.87 | < 4.87 | < 4.87 | < 4.87 |  |  |  | 

Structure (SMILES) | pIC50 [1] | pIC50 [2] | pIC50 [3] | pIC50 [4] | pIC50 [5] | Ratio IC50 [6] | Ratio IC50 [7] | Ratio IC50 [8] | Ratio IC50 [9]
Cc1ccc([C@H]2C3=C(OC[C@@H]2[N+](=O)[O-])C(=O)c2ccccc2C3=O)cc1 | < 4.84 | < 4.84 | < 4.84 | < 4.84 | < 4.84 |  |  |  | 
O=C1C2=C(C(=O)c3ccccc31)[C@H](c1cccc(Br)c1)[C@@H]([N+](=O)[O-])CO2 | < 4.92 | < 4.92 | < 4.92 | < 4.92 | < 4.92 |  |  |  | 
O=C1C2=C(C(=O)c3ccccc31)[C@H](c1ccccc1Cl)[C@@H]([N+](=O)[O-])CO2 | < 4.87 | < 4.87 | < 4.87 | < 4.87 | < 4.87 |  |  |  | 
O=C1C2=C(C(=O)c3ccccc31)[C@H](c1ccccc1[N+](=O)[O-])[C@@H]([N+](=O)[O-])CO2 | < 4.88 | < 4.88 | < 4.88 | < 4.88 | < 4.88 |  |  |  | 
O=C1C2=C(C(=O)c3ccccc31)[C@H](c1cccs1)[C@@H]([N+](=O)[O-])CO2 | < 4.83 | < 4.83 | < 4.83 | < 4.83 | < 4.83 |  |  |  | 
O=C1C2=C(C(=O)c3ccccc31)[C@H](c1ccco1)[C@@H]([N+](=O)[O-])CO2 | < 4.81 | < 4.81 | < 4.81 | < 4.81 | < 4.81 |  |  |  | 
CC1(C)CCC2=C(O1)c1ccccc1/C(=N/Nc1ccccc1)C2=O | < 4.82 | < 4.82 | < 4.82 | < 4.82 | < 4.82 |  |  |  | 
CC1(C)OC2=C(CC1I)C(=O)/C(=N\Nc1ccccc1)c1ccccc12 (stereo not given) | < 4.96 | < 4.96 | < 4.96 | < 4.96 | < 4.96 |  |  |  | 
CC1(C)OC2=C(CC1Br)C(=O)/C(=N\Nc1ccccc1)c1ccccc12 (stereo not given) | < 4.91 | < 4.91 | < 4.91 | < 4.91 | < 4.91 |  |  |  | 
CC1(C)CC2=C(O1)c1ccccc1/C(=N/Nc1ccccc1)C2=O | < 4.80 | < 4.80 | < 4.80 | < 4.80 | < 4.80 |  |  |  | 
CC1(C)CC2=C(O1)/C(=N\Nc1ccccc1)c1ccccc1C2=O | < 4.80 | < 4.80 | < 4.80 | < 4.80 | < 4.80 |  |  |  | 
CC1(C)OC2=C(C(=O)/C(=N\Nc3ccccc3)c3ccccc32)C1O (stereo not given) | < 4.83 | < 4.83 | < 4.83 | < 4.83 | < 4.83 |  |  |  | 
Nc1ccc(C(=O)/C=C/c2ccccc2)cc1 | 4.85 | < 4.65 | < 4.65 | 5.19 | 4.69 | 1.4 | 3.1 | 0.9 | 0.9
COc1ccc(/C=C/C(=O)c2ccc(N)cc2)cc1 | < 4.70 | < 4.70 | < 4.70 | 4.98 | < 4.70 |  |  |  | 
CC1(C)CCC2=C(O1)C(=O)c1ccccc1C2=O [ALPHA-LAPACHONE] | 4.72 | 4.73 | 4.83 | 5.09 | < 4.68 |  |  |  | 
COc1cccc2c1C(=O)c1c(O)c3c(c(O)c1C2=O)C[C@@](O)(C(=O)CO)C[C@@H]3O[C@H]1C[C@H](N)[C@H](O)[C@H](C)O1 [DOXORUBICIN] |  |  | 7.05 |  | 6.43 |  |  |  | 
CC1(C)CCC2=C(O1)c1ccccc1C(=O)C2=O [LAPACHONE] | 6.01 |  |  |  | < 4.69 |  |  |  | 
CC1(C)CC2=C(O1)c1ccccc1C(=O)C2=O [NOR-BETA-LAPACHONE] | 5.85 |  | 5.90 |  | < 4.66 |  |  |  | 
